{"source": "PubChem BioAssay AID192", "about": "(DTP/NCI, 2004)", "test_system": "BDF1 mice, B16 melanoma ip, median survival T/C", "experiment": "NCI In Vivo Anticancer Drug Screen. Data for tumor model B16 Melanoma (intraperitoneal) in B6D2F1 (BDF1) mice", "conditions": "endpoint: median survival time, higher = longer survival", "method_in_brief": "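Vehicle-treated animals serve as the reference (C); treated animals (T) are scored for survival or tumor size after tumor transplantation.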", "key": {"[1]": {"conditions": "dose: 100.0 mg/kg/injection, schedule: Q01DX009 (ip), vehicle: saline with Tween-80"}, "[2]": {"conditions": "dose: 200.0 mg/kg/injection, schedule: Q01DX009 (ip), vehicle: saline with Tween-80"}, "[3]": {"conditions": "dose: 400.0 mg/kg/injection, schedule: Q01DX009 (ip), vehicle: saline with Tween-80"}, "[4]": {"conditions": "dose: 50.0 mg/kg/injection, schedule: Q01DX009 (ip), vehicle: Klucel (hydroxypropylcellulose) (HPC)"}, "[5]": {"conditions": "dose: 100.0 mg/kg/injection, schedule: Q01DX009 (ip), vehicle: Klucel (hydroxypropylcellulose) (HPC)"}, "[6]": {"conditions": "dose: 200.0 mg/kg/injection, schedule: Q01DX009 (ip), vehicle: Klucel (hydroxypropylcellulose) (HPC)"}, "[7]": {"conditions": "dose: 12.5 mg/kg/injection, schedule: Q01DX009 (ip), vehicle: saline with Tween-80"}, "[8]": {"conditions": "dose: 25.0 mg/kg/injection, schedule: Q01DX009 (ip), vehicle: saline with Tween-80"}, "[9]": {"conditions": "dose: 50.0 mg/kg/injection, schedule: Q01DX009 (ip), vehicle: saline with Tween-80"}}, "note": "Values joined by “and” are separate entries in the source; they are usually repeats but may differ in a detail not shown here. Equal entries are not always repeated. Toxic doses and inconclusive results are not listed."}
{"smiles": "NNC(=O)CCC(=O)NN", "values": [{"measurement": "T/C", "setting": "[1]", "value": "102 % of control"}, {"measurement": "T/C", "setting": "[2]", "value": "104 % of control"}, {"measurement": "T/C", "setting": "[3]", "value": "93 % of control"}]}
{"smiles": "O=C1NC(c2ccccc2Cl)Nc2ccccc21", "note": "(configuration not stated)", "values": [{"measurement": "T/C", "setting": "[4]", "value": "103 % of control"}, {"measurement": "T/C", "setting": "[5]", "value": "98 % of control"}, {"measurement": "T/C", "setting": "[6]", "value": "98 % of control"}, {"measurement": "T/C", "setting": "dose: 400.0 mg/kg/injection, schedule: Q01DX009 (ip), vehicle: Klucel (hydroxypropylcellulose) (HPC)", "value": "108 % of control"}]}
{"smiles": "[N-]=[N+]=C1Cc2ccccc2C1=O", "values": [{"measurement": "T/C", "setting": "[5]", "value": "97 % of control"}, {"measurement": "T/C", "setting": "[6]", "value": "105 % of control"}]}
{"smiles": "O=C(CBr)c1ccc(-c2ccccc2)cc1", "values": [{"measurement": "T/C", "setting": "dose: 12.5 mg/kg/injection, schedule: Q04DX003 (ip), vehicle: Klucel (hydroxypropylcellulose) (HPC)", "value": "88 % of control"}, {"measurement": "T/C", "setting": "dose: 25.0 mg/kg/injection, schedule: Q04DX003 (ip), vehicle: Klucel (hydroxypropylcellulose) (HPC)", "value": "102 % of control"}, {"measurement": "T/C", "setting": "[4]", "value": "93 % of control"}, {"measurement": "T/C", "setting": "dose: 50.0 mg/kg/injection, schedule: Q04DX003 (ip), vehicle: Klucel (hydroxypropylcellulose) (HPC)", "value": "94 % of control"}]}
{"smiles": "Cc1cc(SCC(=O)c2ccc(Br)cc2)cc(C)[o+]1", "values": [{"measurement": "T/C", "setting": "dose: 6.25 mg/kg/injection, schedule: Q01DX009 (ip), vehicle: saline", "value": "111 % of control and 122 % of control"}, {"measurement": "T/C", "setting": "dose: 12.5 mg/kg/injection, schedule: Q01DX009 (ip), vehicle: saline", "value": "112 % of control and 119 % of control"}, {"measurement": "T/C", "setting": "dose: 25.0 mg/kg/injection, schedule: Q01DX009 (ip), vehicle: saline", "value": "98 % of control and 118 % of control"}, {"measurement": "T/C", "setting": "dose: 50.0 mg/kg/injection, schedule: Q01DX009 (ip), vehicle: saline", "value": "106 % of control"}, {"measurement": "T/C", "setting": "dose: 100.0 mg/kg/injection, schedule: Q01DX009 (ip), vehicle: saline", "value": "95 % of control"}]}
{"smiles": "O=C1C(Br)C2CCC1C2C(=O)O", "note": "(configuration not stated)", "values": [{"measurement": "T/C", "setting": "[1]", "value": "111 % of control"}, {"measurement": "T/C", "setting": "[2]", "value": "94 % of control"}, {"measurement": "T/C", "setting": "[3]", "value": "89 % of control"}]}
{"smiles": "COc1cc2c(cc1OC)C(C#N)C2", "note": "(configuration not stated)", "values": [{"measurement": "T/C", "setting": "dose: 6.25 mg/kg/injection, schedule: Q01DX009 (ip), vehicle: Klucel (hydroxypropylcellulose) (HPC)", "value": "105 % of control"}, {"measurement": "T/C", "setting": "dose: 12.5 mg/kg/injection, schedule: Q01DX009 (ip), vehicle: Klucel (hydroxypropylcellulose) (HPC)", "value": "97 % of control and 102 % of control"}, {"measurement": "T/C", "setting": "dose: 25.0 mg/kg/injection, schedule: Q01DX009 (ip), vehicle: Klucel (hydroxypropylcellulose) (HPC)", "value": "111 % of control"}]}
{"smiles": "CNCCNc1ccc(NCCNC)c2c1C(=O)c1ccccc1C2=O", "values": [{"measurement": "T/C", "setting": "dose: 2.0 mg/kg/injection, schedule: Q01DX009 (ip), vehicle: acid diluted with saline", "value": "156 % of control"}, {"measurement": "T/C", "setting": "dose: 4.0 mg/kg/injection, schedule: Q01DX009 (ip), vehicle: acid diluted with saline", "value": "230 % of control"}, {"measurement": "T/C", "setting": "dose: 8.0 mg/kg/injection, schedule: Q01DX009 (ip), vehicle: acid diluted with saline", "value": "231 % of control"}]}
{"smiles": "[Cl][Pt+2][Cl].[NH-]c1cc2ccccc2cc1[NH-]", "values": [{"measurement": "T/C", "setting": "dose: 20.0 mg/kg/injection, schedule: Q01DX009 (ip), vehicle: saline with Tween-80", "value": "113 % of control"}, {"measurement": "T/C", "setting": "dose: 40.0 mg/kg/injection, schedule: Q01DX009 (ip), vehicle: saline with Tween-80", "value": "122 % of control"}, {"measurement": "T/C", "setting": "dose: 80.0 mg/kg/injection, schedule: Q01DX009 (ip), vehicle: saline with Tween-80", "value": "120 % of control"}, {"measurement": "T/C", "setting": "dose: 160.0 mg/kg/injection, schedule: Q01DX009 (ip), vehicle: saline with Tween-80", "value": "87 % of control"}, {"measurement": "T/C", "setting": "dose: 320.0 mg/kg/injection, schedule: Q01DX009 (ip), vehicle: saline with Tween-80", "value": "118 % of control"}]}
{"smiles": "Cc1cc(C)c(NC(=O)Nc2cccc(Cl)c2)c(C)c1", "values": [{"measurement": "T/C", "setting": "[5]", "value": "88 % of control"}, {"measurement": "T/C", "setting": "[6]", "value": "94 % of control"}]}
{"smiles": "CCc1nc2cc(C)c(C)cc2[nH]1", "values": [{"measurement": "T/C", "setting": "[7]", "value": "106 % of control"}, {"measurement": "T/C", "setting": "[8]", "value": "104 % of control"}, {"measurement": "T/C", "setting": "[9]", "value": "104 % of control"}]}
{"smiles": "COC(=O)/C=C/c1ccc([N+](=O)[O-])cc1", "values": [{"measurement": "T/C", "setting": "dose: 100.0 mg/kg/injection, schedule: Q04DX003 (ip), vehicle: saline with Tween-80", "value": "90 % of control"}, {"measurement": "T/C", "setting": "dose: 200.0 mg/kg/injection, schedule: Q04DX003 (ip), vehicle: saline with Tween-80", "value": "93 % of control"}, {"measurement": "T/C", "setting": "dose: 400.0 mg/kg/injection, schedule: Q04DX003 (ip), vehicle: saline with Tween-80", "value": "86 % of control"}]}
{"smiles": "C1=CCOCOC1", "values": [{"measurement": "T/C", "setting": "dose: 12.5 mg/kg/injection, schedule: Q04DX003 (ip), vehicle: saline", "value": "96 % of control"}, {"measurement": "T/C", "setting": "dose: 25.0 mg/kg/injection, schedule: Q04DX003 (ip), vehicle: saline", "value": "107 % of control"}, {"measurement": "T/C", "setting": "dose: 50.0 mg/kg/injection, schedule: Q04DX003 (ip), vehicle: saline", "value": "93 % of control"}]}
{"smiles": "Cc1cccc(C)c1C1=NCCN1", "values": [{"measurement": "T/C", "setting": "[7]", "value": "95 % of control"}, {"measurement": "T/C", "setting": "[8]", "value": "95 % of control"}, {"measurement": "T/C", "setting": "[9]", "value": "93 % of control"}]}
{"smiles": "CC12C=CC(=O)C=C1CCC1C2C(O)CC2(C)C1CCC2(O)C(=O)COC(=O)CCCc1ccc(N(CCCl)CCCl)cc1", "note": "(configuration not stated)", "values": [{"measurement": "T/C", "setting": "dose: 15.0 mg/kg/injection, schedule: Q01DX011 (ip), vehicle: saline", "value": "119 % of control"}]}
